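Values below derive from 48-hour exposures of cells grown in 96-well plates, with endpoints linearly interpolated between the two concentrations bracketing the appropriate inhibition level. GI50 marks 50% less growth. At the TGI there is no net growth.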
Key:
Assay in all cases: inhibition of tumour cell growth, NCI panel, 48 h
[1] = system: 786-0 renal
[2] = system: A498 renal
[3] = system: A549 NSCLC
[4] = system: ACHN renal
[5] = system: BT-549 breast
[6] = system: CAKI-1 renal
[7] = system: CCRF-CEM leukemia
[8] = system: COLO 205 colon
[9] = system: DU-145 prostate
[10] = system: EKVX NSCLC
[11] = system: HCC-2998 colon
[12] = system: HCT-116 colon
[13] = system: HCT-15 colon
[14] = system: HOP-62 NSCLC
[15] = system: HOP-92 NSCLC
[16] = system: HS 578T breast
[17] = system: HT29 colon
[18] = system: IGROV1 ovarian
[19] = system: K-562 leukemia
[20] = system: KM12 colon
[21] = system: LOX IMVI melanoma
[22] = system: M14 melanoma
[23] = system: MALME-3M melanoma
[24] = system: MCF7 breast
[25] = system: MDA-MB-231 breast
[26] = system: MDA-MB-435
[27] = system: MOLT-4 leukemia
[28] = system: NCI-H226 lung
[29] = system: NCI-H23 lung
[30] = system: NCI-H460 lung
[31] = system: NCI-H522 lung
[32] = system: OVCAR-3 ovarian
[33] = system: OVCAR-4 ovarian
[34] = system: OVCAR-5 ovarian
[35] = system: OVCAR-8 ovarian
[36] = system: PC-3 prostate
[37] = system: RPMI-8226 leukemia
[38] = system: RXF 393 renal
[39] = system: SF-268 CNS
[40] = system: SF-295 CNS
[41] = system: SF-539 CNS
[42] = system: SK-MEL-2 melanoma
[43] = system: SK-MEL-28 melanoma
[44] = system: SK-MEL-5 melanoma
[45] = system: SK-OV-3 ovarian
[46] = system: SN12C renal
[47] = system: SNB-19 CNS
[48] = system: SNB-75 CNS
[49] = system: SW-620 colon
[50] = system: T-47D breast
[51] = system: TK-10 renal
[52] = system: U251 CNS
[53] = system: UACC-257 melanoma
[54] = system: UACC-62 melanoma
[55] = system: UO-31 renal

Work on `Cc1ccc2[nH]c(C(=O)NN3C(=O)C(C)SC34CCCC(C)C4)c(-c3ccccc3)c2c1` (stereo not given) yielded a GI50 [1] of 58.3 µM, a TGI [1] of over 100 µM and a GI50 [2] of over 100 µM. It also gave a TGI [2] of over 100 µM, a GI50 [3] of 30.9 µM and a TGI [3] of over 100 µM. It also gave a GI50 [4] of over 100 µM, a TGI [4] of over 100 µM and a GI50 [5] of 76.7 µM. It also gave a TGI [5] of over 100 µM, a GI50 [6] of 95.5 µM and a TGI [6] of over 100 µM. It also gave a GI50 [7] of 74.1 µM, a TGI [7] of over 100 µM and a GI50 [8] of 94.1 µM. For the same compound, the TGI [8] was over 100 µM, the GI50 [9] was over 100 µM and the TGI [9] was over 100 µM. The GI50 [10] was over 100 µM, the TGI [10] was over 100 µM and the GI50 [11] was 76.6 µM. It also gave a TGI [11] of over 100 µM, a GI50 [12] of 75.7 µM and a TGI [12] of over 100 µM. It also gave a GI50 [13] of 87 µM, a TGI [13] of over 100 µM and a GI50 [14] of over 100 µM. For the same compound, the TGI [14] was over 100 µM, the GI50 [15] was over 100 µM and the TGI [15] was over 100 µM. It also gave a GI50 [16] of 87.8 µM, a TGI [16] of over 100 µM and a GI50 [17] of 33.9 µM. It also gave a TGI [17] of over 100 µM, a GI50 [18] of 59.1 µM and a TGI [18] of over 100 µM. It also gave a GI50 [19] of 35.1 µM, a TGI [19] of over 100 µM and a GI50 [20] of 65.6 µM. For the same compound, the TGI [20] was over 100 µM, the GI50 [21] was over 100 µM and the TGI [21] was over 100 µM. The GI50 [22] was over 100 µM, the TGI [22] was over 100 µM and the GI50 [23] was 69 µM. For the same compound, the TGI [23] was over 100 µM, the GI50 [24] was 32.7 µM and the TGI [24] was over 100 µM. The GI50 [25] was over 100 µM, the TGI [25] was over 100 µM and the GI50 [26] was over 100 µM. For the same compound, the TGI [26] was over 100 µM, the GI50 [27] was 19.3 µM and the TGI [27] was over 100 µM. The GI50 [28] was over 100 µM, the TGI [28] was over 100 µM and the GI50 [29] was over 100 µM. The TGI [29] was over 100 µM, the GI50 [30] was 83.3 µM and the TGI [30] was over 100 µM. The GI50 [31] was 78 µM, the TGI [31] was over 100 µM and the GI50 [32] was 97.3 µM. For the same compound, the TGI [32] was over 100 µM, the GI50 [33] was 50 µM and the TGI [33] was over 100 µM. It also gave a GI50 [34] of over 100 µM, a TGI [34] of over 100 µM and a GI50 [35] of 34.5 µM. For the same compound, the TGI [35] was over 100 µM, the GI50 [36] was 55.1 µM and the TGI [36] was over 100 µM. The GI50 [37] was 53.1 µM, the TGI [37] was over 100 µM and the GI50 [38] was 17.1 µM. For the same compound, the TGI [38] was 84.7 µM, the GI50 [39] was 64.8 µM and the TGI [39] was over 100 µM. The GI50 [40] was 68.5 µM, the TGI [40] was over 100 µM and the GI50 [41] was over 100 µM. It also gave a TGI [41] of over 100 µM, a GI50 [42] of over 100 µM and a TGI [42] of over 100 µM. For the same compound, the GI50 [43] was over 100 µM, the TGI [43] was over 100 µM and the GI50 [44] was over 100 µM. For the same compound, the TGI [44] was over 100 µM, the GI50 [45] was over 100 µM and the TGI [45] was over 100 µM. The GI50 [46] was 23.5 µM, the TGI [46] was over 100 µM and the GI50 [47] was over 100 µM. It also gave a TGI [47] of over 100 µM, a GI50 [48] of 60.1 µM and a TGI [48] of over 100 µM. For the same compound, the GI50 [49] was over 100 µM, the TGI [49] was over 100 µM and the GI50 [50] was over 100 µM. The TGI [50] was over 100 µM, the GI50 [51] was 89.4 µM and the TGI [51] was over 100 µM. For the same compound, the GI50 [52] was 48.8 µM, the TGI [52] was over 100 µM and the GI50 [53] was 66.8 µM. The TGI [53] was over 100 µM, the GI50 [54] was 76.8 µM and the TGI [54] was over 100 µM. It also gave a GI50 [55] of over 100 µM and a TGI [55] of over 100 µM.
